According to patent publication US10118918B2, “PRMT5 inhibitors and uses thereof” (Epizyme, Inc., priority 2012, dated 2018):

Columns and labels:
[1] = tested on: symmetric di-methyl arginine in Z-138 cells; test: Z-138 Methylation Assay (In Cell Western for symmetric di-methyl arginine and DNA content); type: cell-based; settings: Homo sapiens, 96 hours incubation, read-out: ICW EC50
Excerpt: [formula] Where top and bottom are the normally allowed to float, but may be fixed at 100 or 0 respectively in a 3-parameter fit. The Hill Coefficient normally allowed to float but may also be fixed at 1 in a 3-parameter fit. Y is the % inhibition and X is the compound concentration. Z-138 Methylation Assay
Z-138 suspension cells were purchased from ATCC (American Type Culture Collection, Manassas, Va.). RPMI/Glutamax medium, penicillin-streptomycin, heat inactivated fetal bovine serum, and D-PBS were purchased from Life Technologies, Grand Island, N.Y., USA. Odyssey blocking buffer, 800CW goat anti-rabbit IgG (H+L) antibody, and Licor Odyssey infrared scanner were purchased from Licor Biosciences, Lincoln, Nebr., USA. Symmetric di-methyl arginine antibody was purchased from EMD Millipore, Billerica, Mass., USA. 16% Paraformaldehyde was purchased from Electron Microscopy Sciences, Hatfield, Pa., USA.
Z-138 suspension cells were maintained in growth medium (RPMI 1640 supplemented with 10% v/v heat inactivated fetal bovine serum and 100 units/mL penicillin-streptomycin) and cultured at 37° C. under 5% CO2.
Cell Treatment, in Cell Western (ICW) for Detection of Symmetric Di-Methyl Arginine and DNA Content.
Z-138 cells were seeded in assay medium at a concentration of 50,000 cells per mL to a 384-well cell culture plate with 50 μL per well. Compound (100 nL) from 384 well source plates was added directly to 384 well cell plate. Plates were incubated at 37° C., 5% CO2 for 96 hours. After four days of incubation, 40 μL of cells from incubated plates were added to poly-D-lysine coated 384 well culture plates (BD Biosciences 356697). Plates were incubated at room temperature for 30 minutes then incubated at 37° C., 5% CO2 for 5 hours. After the incubation, 40 μL per well of 8% paraformaldehyde in PBS (16% paraformaldahyde was diluted to 8% in PBS) was added to each plate and incubated for 30 minutes. Plates were transferred to a Biotek 405 plate washer and washed 5 times with 100 μL per well of wash buffer (IX PBS with 0.1% Triton X-100 (v/v)). Next 30 μL per well of Odyssey blocking buffer were added to each plate and incubated 1 hour at room temperature. Blocking buffer was removed and 20 μL per well of primary antibody was added (symmetric di-methyl arginine diluted 1:100 in Odyssey buffer with 0.1% Tween 20 (v/v)) and plates were incubated overnight (16 hours) at 4° C. Plates were washed 5 times with 100 μL per well of wash buffer. Next 20 μL per well of secondary antibody was added (1:200 800CW goat anti-rabbit IgG (H+L) antibody, 1:1000 DRAQ5 (Biostatus limited) in Odyssey buffer with 0.1% Tween 20 (v/v)) and incubated for 1 hour at room temperature. The plates were washed 5 times with 100 μL per well wash buffer then 1 time with 100 μL per well of water. Plates were allowed to dry at room temperature then imaged on the Licor Odyssey machine which measures integrated intensity at 700 nm and 800 nm wavelengths. Both 700 and 800 channels were scanned.
First, the ratio for each well was determined by:
Each plate included fourteen control wells of DMSO only treatment (minimum inhibition) as well as fourteen control wells for maximum inhibition treated with 3 μM of a reference compound (Background wells). The average of the ratio values for each control type was calculated and used to determine the percent inhibition for each test well in the plate. Reference compound was serially diluted three-fold in DMSO for a total of nine test concentrations, beginning at 3 μM. Percent inhibition was determined and IC50 curves were generated using triplicate wells per concentration of compound. […]

Z-138 cells = test: Z-138 Proliferation Assay (Cell Titer Glo); type: cell-based; settings: Homo sapiens, 120 h, 5 days incubation
Excerpt: [formula] Z-138 Proliferation Assay
Z-138 suspension cells were purchased from ATCC (American Type Culture Collection, Manassas, Va.). RPMI/Glutamax medium, penicillin-streptomycin, heat inactivated fetal bovine serum were purchased from Life Technologies, Grand Island, N.Y., USA. V-bottom polypropylene 384-well plates were purchased from Greiner Bio-One, Monroe, N.C., USA. Cell culture 384-well white opaque plates were purchased from Perkin Elmer, Waltham, Mass., USA. Cell-Titer Glo® was purchased from Promega Corporation, Madison, Wis., USA. SpectraMax M5 plate reader was purchased from Molecular Devices LLC, Sunnyvale, Calif., USA.
Z-138 suspension cells were maintained in growth medium (RPMI 1640 supplemented with 10% v/v heat inactivated fetal bovine serum and cultured at 37° C. under 5% CO2. Under assay conditions, cells were incubated in assay medium (RPMI 1640 supplemented with 10% v/v heat inactivated fetal bovine serum and 100 units/mL penicillin-streptomycin) at 37° C. under 5% CO2.
For the assessment of the effect of compounds on the proliferation of the Z-138 cell line, exponentially growing cells were plated in 384-well white opaque plates at a density of 10,000 cells/ml in a final volume of 50 μl of assay medium. A compound source plate was prepared by performing triplicate nine-point 3-fold serial dilutions in DMSO, beginning at 10 mM (final top concentration of compound in the assay was 20 μM and the DMSO was 0.2%). A 100 nL aliquot from the compound stock plate was added to its respective well in the cell plate. […] After addition of compounds, assay plates were incubated for 5 days at 37° C., 5% CO2, relative humidity >90%.
Cell viability was measured by quantitation of ATP present in the cell cultures, adding 35 μl of Cell Titer Glo® reagent to the cell plates. Luminescence was read in the SpectraMax M5 microplate reader. The concentration of compound inhibiting cell viability by 50% was determined using a 4-parametric fit of the normalized dose response curves.

EC50 [1] [µM]	Compound	EC50 (Z-138 cells) [µM]
< 0.1	CN(C)S(=O)(=O)c1ccccc1OCC(=O)NC[C@H](O)CN1Cc2ccccc2C1 [compound 23]	0.101 to 1
0.101 to 1	O=C(COc1cccc2cccnc12)NC[C@H](O)CN1Cc2ccccc2C1 [compound 4]	1 to 10
0.101 to 1	CS(=O)(=O)N1CCC(Nc2cncc(C(=O)NC[C@H](O)CN3Cc4ccccc4C3)c2)C1 (some centres unmarked) [compound 33]	> 20
0.101 to 1	CN1CCOc2cccc(OCC(=O)NC[C@H](O)CN3Cc4ccccc4C3)c21 [compound 26]	> 20
